This is an account of results in paper PMC5487681, “Identification of Antifungal H^+-ATPase Inhibitors with Effect on Plasma Membrane Potential” (Antimicrobial Agents and Chemotherapy, 2017).

Residues, ends and D or L forms follow the SMILES beside them.

For test [1], the system named is C. albicans. Particulars: read-out: IC50 for C. albicans, previously reported value; cited from earlier work.
For test [2], the system named is S. cerevisiae cells. In words: Membrane potential and integrity assay, DiBAC4(3)/PI image cytometry. The format is cell-based, Saccharomyces cerevisiae. Particulars: for PI signal (membrane integrity), in words: compound 14 after 5 min, BM2 within 5 min; for PI signal (membrane integrity), in words / DiBAC4(3) signal (membrane depolarization), in words: compound 17 15 µM, 30 min (Fig. S1); for DiBAC4(3) signal (membrane depolarization), in words: compound 14 after 5 min of exposure. How it is done: Cells were transferred from frozen stocks to 3 ml of YPD medium and grown overnight at 30°C and 150 rpm. The culture was diluted to an OD600 of 0.15 and grown for 3 to 4 h at 30°C and 150 rpm to an OD600 of 0.5 to 0.7. The cells were pelleted by centrifugation at 2,000 × g for 2 min and washed in buffer A (100 mM MOPS and 1 mM KCl adjusted to pH 7.0 with Trizma base). The washing procedure was repeated, and the cells were resuspended in buffer A to an OD600 of 0.2. Fifty microliters of buffer A containing 3.3 μg/ml propidium iodide (PI; catalog number P1304MP; Thermo Fisher Scientific) and 1 μg/ml DiBAC4(3) (catalog number D8189; Sigma-Aldrich) was mixed with 50 μl the S. cerevisiae cell suspension in buffer A and transferred to a 96-well plate with 1 μl of inhibitor in DMSO, and the components were mixed.
Approximately 30 μl sample was transferred to an A2 glass slide (ChemoMetec, Allerod, Denmark), and the slide was incubated at 30°C before the cells were counted on a NucleoCounter NC-3000 cytometer (ChemoMetec). Five thousand cells were counted per experiment with an exposure time of 1,000 ms. A dark field was used as the masking channel to select the yeast cells. The DiBAC4(3) channel (excitation, 530 nm; emission, 675/75 nm) and the PI channel (excitation, 630 nm; emission, 740/60 nm) were used to measure the membrane potential and membrane integrity, respectively. To account for the fluorescent spillover from the PI channel to the DiBAC4(3) channel, 15% compensation was applied. In all experiments, 1.9% compensation was used to compensate for the DiBAC4(3)-to-PI spillover. The results were analyzed using NucleoView software (ChemoMetec). Only cells with a pixel size of 10 to 40 were included in the analysis, thus avoiding analysis of noncell artifacts. Carbonyl cyanide m-chlorophenylhydrazone (CCCP) was used as a positive control for decreased membrane potential, and lysis buffer was used to validate lost membrane integrity.

Test [3] addresses S. cerevisiae Pma1 (Saccharomyces cerevisiae, UniProt P05030). Particulars: read-out: IC50 Pma1, ATP hydrolysis assay; cited from earlier work.
The mark [4] stands for this setting: 30 min of exposure, 15 μM (Fig. 4C).

As usually defined, the IC50 is the midpoint of a concentration-inhibition curve.

Sequence of S. cerevisiae Pma1 (P05030 whole entry): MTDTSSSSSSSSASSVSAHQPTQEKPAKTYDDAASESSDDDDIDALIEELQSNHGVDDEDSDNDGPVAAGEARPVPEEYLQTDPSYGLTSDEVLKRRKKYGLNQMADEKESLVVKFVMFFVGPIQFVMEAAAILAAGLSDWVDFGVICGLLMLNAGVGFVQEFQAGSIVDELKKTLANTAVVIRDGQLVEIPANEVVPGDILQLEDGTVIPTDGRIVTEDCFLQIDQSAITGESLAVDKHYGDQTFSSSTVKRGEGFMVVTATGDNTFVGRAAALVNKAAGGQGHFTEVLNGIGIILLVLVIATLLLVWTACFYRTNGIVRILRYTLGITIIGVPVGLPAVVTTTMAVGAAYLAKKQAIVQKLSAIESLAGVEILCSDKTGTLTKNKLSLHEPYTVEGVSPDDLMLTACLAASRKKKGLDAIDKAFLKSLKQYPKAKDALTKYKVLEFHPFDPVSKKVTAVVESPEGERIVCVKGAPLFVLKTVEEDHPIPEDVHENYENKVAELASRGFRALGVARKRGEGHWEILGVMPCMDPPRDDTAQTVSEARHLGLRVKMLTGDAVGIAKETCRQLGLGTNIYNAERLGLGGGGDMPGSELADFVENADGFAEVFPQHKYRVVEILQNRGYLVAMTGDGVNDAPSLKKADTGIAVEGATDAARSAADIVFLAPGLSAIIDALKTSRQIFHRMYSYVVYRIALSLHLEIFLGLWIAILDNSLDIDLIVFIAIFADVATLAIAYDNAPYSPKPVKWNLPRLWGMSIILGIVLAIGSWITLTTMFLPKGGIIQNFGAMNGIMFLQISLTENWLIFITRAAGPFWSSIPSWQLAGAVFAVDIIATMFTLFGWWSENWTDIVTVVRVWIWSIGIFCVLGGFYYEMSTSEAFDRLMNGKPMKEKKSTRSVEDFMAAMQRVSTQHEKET

For `O=c1c2ccccc2[se]n1-c1ccccc1` [Ebselen, reference compound], the IC50 in test [1] was 14 µM.

For `CCc1nc2sc3c(NCCCN(C)C)ncnc3c2c2c1CCCC2` [Compound 17], in test [2], the “PI signal (membrane integrity), in words” value was “not significantly increased” and the “DiBAC4(3) signal (membrane depolarization), in words” value is on record as “did not increase”.

As for `CCCCc1nc2sc3c(NCCCN(C)C)ncnc3c2c2c1CCCC2` [Compound 14], in test [2] (setting [4]), the “Cells DiBAC4(3) positive and PI negative” value was 44%; the “Cells PI positive but DiBAC4(3) negative” value worked out at 0.7%; the “Cells both PI and DiBAC4(3) negative” value is listed as 16%; the “Cells both PI and DiBAC4(3) positive” value worked out at 39%. Further, in test [2], the “PI signal (membrane integrity), in words” value is “minimal increase” and the “DiBAC4(3) signal (membrane depolarization), in words” value is “elevated”.

As for `N=C(N)NCCC[C@@H](N)C(=O)N[C@H](CCCNC(=N)N)C(=O)N[C@H](CCCNC(=N)N)C(=O)N[C@H](Cc1ccccc1)C(=O)N[C@H](Cc1c[nH]c2ccccc12)C(=O)N[C@H](Cc1c[nH]c2ccccc12)C(=O)N[C@H](Cc1ccccc1)C(=O)N[C@H](CCCNC(=N)N)C(=O)N[C@H](CCCNC(=N)N)C(=O)N[C@H](CCCNC(=N)N)C(N)=O` [BM2, reference compound] (HELM PEPTIDE1{[dR].[dR].[dR].[dF].[dW].[dW].[dF].[dR].[dR].[dR].[am]}$$$$V2.0), in test [3], the IC50 is 0.5 µM.
